Literature values as cited in PMC5129521 (Diabetes, Obesity & Metabolism, 2016).

Details: mice

Terminal plasma half‐life: ~7 h
SMILES: CCCCCCCCCCCCCCCC(=O)N[C@@H](CCC(=O)NCCCC[C@H](NC(=O)[C@H](C)NC(=O)[C@H](C)NC(=O)[C@H](CCC(N)=O)NC(=O)CNC(=O)[C@H](CCC(=O)O)NC(=O)[C@H](CC(C)C)NC(=O)[C@H](Cc1ccc(O)cc1)NC(=O)[C@H](CO)NC(=O)[C@H](CO)NC(=O)[C@@H](NC(=O)[C@H](CC(=O)O)NC(=O)[C@H](CO)NC(=O)[C@@H](NC(=O)[C@H](Cc1ccccc1)NC(=O)[C@@H](NC(=O)CNC(=O)[C@H](CCC(=O)O)NC(=O)[C@H](C)NC(=O)[C@@H](N)Cc1cnc[nH]1)[C@@H](C)O)[C@@H](C)O)C(C)C)C(=O)N[C@@H](CCC(=O)O)C(=O)N[C@@H](Cc1ccccc1)C(=O)N[C@H](C(=O)N[C@@H](C)C(=O)N[C@@H](Cc1c[nH]c2ccccc12)C(=O)N[C@@H](CC(C)C)C(=O)N[C@H](C(=O)N[C@@H](CCCNC(=N)N)C(=O)NCC(=O)N[C@@H](CCCNC(=N)N)C(=O)NCC(=O)O)C(C)C)[C@@H](C)CC)C(=O)O [Liraglutide]
